Experiments:
PRC2-EZH2 (WT EZH2) = biological target: T1, PRC2-EZH2 (WT EZH2) (Homo sapiens, UniProt Q15910); assay: EZH2 methyltransferase inhibitory activity evaluation; assay type: biochemical; conditions: PRC2-EZH2, biotin-H3 peptide, 3H-SAM, 2 hours
T1 construct: made in house
Procedure: EZH2 Methyltransferase Inhibitory Activity Evaluation
(§1) Then, the residual radioactivity was measured using TopCount NXT HTS (PerkinElmer, Inc., model C384V01).

[1] = system: Intracellular H3K27me3 in HCT116 cells; assay: Intracellular H3K27me3 inhibitory activity evaluation; assay type: cell-based; conditions: Homo sapiens, HCT-116, 72 h, 3 days, AlphaLISA, read-out: Test Example 3 H3K27me3 inhibition (HCT116) IC50
PRC2-EZH1 (WT EZH1) = PRC2-EZH1 (WT EZH1) (Homo sapiens, UniProt Q92800); assay: EZH1 methyltransferase inhibitory activity evaluation
Chain of PRC2-EZH1 (WT EZH1) (Q92800 whole entry): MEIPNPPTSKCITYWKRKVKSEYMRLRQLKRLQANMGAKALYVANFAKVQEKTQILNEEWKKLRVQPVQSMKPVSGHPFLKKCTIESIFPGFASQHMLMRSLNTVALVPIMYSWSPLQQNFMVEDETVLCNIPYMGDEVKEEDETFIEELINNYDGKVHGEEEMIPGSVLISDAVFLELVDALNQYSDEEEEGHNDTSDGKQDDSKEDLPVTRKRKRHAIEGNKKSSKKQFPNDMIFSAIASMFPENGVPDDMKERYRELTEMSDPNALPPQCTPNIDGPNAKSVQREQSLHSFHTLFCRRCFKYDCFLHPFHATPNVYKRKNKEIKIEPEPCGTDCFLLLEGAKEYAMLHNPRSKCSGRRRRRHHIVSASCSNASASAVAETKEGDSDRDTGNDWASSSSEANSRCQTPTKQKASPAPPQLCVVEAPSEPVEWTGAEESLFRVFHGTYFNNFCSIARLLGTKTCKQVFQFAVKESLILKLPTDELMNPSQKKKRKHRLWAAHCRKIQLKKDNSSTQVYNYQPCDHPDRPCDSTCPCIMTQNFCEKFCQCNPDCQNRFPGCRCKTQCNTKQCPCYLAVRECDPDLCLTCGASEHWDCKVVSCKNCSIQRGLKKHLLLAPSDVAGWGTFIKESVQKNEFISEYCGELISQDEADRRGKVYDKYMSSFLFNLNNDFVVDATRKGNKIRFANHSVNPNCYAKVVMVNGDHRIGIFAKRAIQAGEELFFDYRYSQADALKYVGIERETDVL
Chain of PRC2-EZH1 (WT EZH1) (O75530 whole entry partner): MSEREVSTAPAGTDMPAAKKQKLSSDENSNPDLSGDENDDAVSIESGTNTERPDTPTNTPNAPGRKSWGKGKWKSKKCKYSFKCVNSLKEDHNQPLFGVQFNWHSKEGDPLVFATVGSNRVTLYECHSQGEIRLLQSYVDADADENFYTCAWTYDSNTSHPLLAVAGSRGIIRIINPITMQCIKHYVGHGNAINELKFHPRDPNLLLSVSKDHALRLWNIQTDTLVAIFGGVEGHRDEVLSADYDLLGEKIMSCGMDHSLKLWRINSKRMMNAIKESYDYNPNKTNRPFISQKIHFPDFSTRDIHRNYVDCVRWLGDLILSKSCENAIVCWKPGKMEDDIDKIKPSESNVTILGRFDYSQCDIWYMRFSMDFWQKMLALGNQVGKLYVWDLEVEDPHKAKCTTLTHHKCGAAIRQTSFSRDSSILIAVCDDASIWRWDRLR
Chain of PRC2-EZH1 (WT EZH1) (Q15022 whole entry partner): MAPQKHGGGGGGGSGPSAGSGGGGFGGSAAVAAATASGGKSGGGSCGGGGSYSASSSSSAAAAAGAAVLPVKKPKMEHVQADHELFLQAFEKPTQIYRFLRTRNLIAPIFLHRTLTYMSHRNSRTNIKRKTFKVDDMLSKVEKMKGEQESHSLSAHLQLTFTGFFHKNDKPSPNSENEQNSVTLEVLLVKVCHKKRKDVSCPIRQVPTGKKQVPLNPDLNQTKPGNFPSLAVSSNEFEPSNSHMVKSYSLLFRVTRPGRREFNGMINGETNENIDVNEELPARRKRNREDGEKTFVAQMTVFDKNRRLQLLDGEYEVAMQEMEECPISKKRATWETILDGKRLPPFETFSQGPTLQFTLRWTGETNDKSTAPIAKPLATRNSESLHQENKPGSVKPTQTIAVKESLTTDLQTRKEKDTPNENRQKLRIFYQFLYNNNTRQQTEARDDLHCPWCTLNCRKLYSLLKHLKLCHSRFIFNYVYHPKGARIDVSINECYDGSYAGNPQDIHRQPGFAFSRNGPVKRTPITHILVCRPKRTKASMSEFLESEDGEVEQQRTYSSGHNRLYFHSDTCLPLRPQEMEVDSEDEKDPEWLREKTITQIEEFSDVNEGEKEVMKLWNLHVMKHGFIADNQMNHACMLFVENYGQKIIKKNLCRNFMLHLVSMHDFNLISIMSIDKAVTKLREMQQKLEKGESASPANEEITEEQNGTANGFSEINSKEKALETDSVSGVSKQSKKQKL
Chain of PRC2-EZH1 (WT EZH1) (Q09028 whole entry partner): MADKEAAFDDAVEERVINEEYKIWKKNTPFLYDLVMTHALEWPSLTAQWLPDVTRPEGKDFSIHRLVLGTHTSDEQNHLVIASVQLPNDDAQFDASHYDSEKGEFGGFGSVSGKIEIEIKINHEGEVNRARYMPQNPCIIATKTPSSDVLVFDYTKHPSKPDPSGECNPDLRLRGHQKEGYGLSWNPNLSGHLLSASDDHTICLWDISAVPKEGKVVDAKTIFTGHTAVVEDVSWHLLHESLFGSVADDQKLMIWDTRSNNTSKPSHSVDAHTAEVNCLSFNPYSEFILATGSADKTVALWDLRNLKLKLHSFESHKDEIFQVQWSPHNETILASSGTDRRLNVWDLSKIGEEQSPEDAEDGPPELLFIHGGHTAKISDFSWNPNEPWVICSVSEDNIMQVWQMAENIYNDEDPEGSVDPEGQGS
Chain of PRC2-EZH1 (WT EZH1) (Q6ZN18 whole entry partner): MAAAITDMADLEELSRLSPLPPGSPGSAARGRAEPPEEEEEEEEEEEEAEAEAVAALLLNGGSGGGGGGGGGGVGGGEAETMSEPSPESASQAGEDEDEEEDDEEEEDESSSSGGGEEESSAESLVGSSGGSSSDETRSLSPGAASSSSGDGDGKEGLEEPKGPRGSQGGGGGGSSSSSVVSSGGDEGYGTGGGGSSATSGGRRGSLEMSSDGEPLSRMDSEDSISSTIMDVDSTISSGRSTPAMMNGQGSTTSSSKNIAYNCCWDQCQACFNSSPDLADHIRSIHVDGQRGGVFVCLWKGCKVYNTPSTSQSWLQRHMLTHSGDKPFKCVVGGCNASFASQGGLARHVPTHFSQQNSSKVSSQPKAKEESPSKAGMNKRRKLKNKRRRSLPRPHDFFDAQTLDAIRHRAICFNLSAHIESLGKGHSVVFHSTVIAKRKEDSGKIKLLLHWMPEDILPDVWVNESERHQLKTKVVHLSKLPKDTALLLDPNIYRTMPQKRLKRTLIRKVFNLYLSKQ
Procedure: EZH1 Methyltransferase Inhibitory Activity Evaluation
as §1

T1 sequence (Q15910 whole entry): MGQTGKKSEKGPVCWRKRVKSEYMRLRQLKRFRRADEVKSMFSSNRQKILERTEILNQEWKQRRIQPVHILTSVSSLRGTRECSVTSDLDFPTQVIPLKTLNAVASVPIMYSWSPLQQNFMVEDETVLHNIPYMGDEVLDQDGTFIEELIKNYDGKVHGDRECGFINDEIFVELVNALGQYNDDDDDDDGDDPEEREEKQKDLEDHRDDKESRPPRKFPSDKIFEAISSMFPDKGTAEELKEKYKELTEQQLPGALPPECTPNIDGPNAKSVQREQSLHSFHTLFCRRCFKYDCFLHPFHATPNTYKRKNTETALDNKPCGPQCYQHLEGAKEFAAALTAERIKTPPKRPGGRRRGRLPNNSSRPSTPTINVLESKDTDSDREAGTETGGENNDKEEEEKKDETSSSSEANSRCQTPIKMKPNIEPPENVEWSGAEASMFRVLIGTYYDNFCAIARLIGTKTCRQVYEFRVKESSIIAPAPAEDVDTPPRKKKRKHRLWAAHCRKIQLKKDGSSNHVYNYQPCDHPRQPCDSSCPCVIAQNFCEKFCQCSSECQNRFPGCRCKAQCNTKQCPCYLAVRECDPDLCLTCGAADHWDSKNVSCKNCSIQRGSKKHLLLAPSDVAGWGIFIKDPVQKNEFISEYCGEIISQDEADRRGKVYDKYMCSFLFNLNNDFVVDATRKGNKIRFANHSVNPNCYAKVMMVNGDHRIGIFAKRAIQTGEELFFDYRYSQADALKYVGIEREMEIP
T1 sequence (O75530 whole entry partner): as the sequence (O75530 whole entry partner) above
T1 sequence (Q15022 whole entry partner): as the sequence (Q15022 whole entry partner) above

Structure (SMILES)	IC50 (PRC2-EZH2 (WT EZH2)) [nM]	IC50 [1] [nM]	IC50 (PRC2-EZH1 (WT EZH1)) [nM]
Cc1cc(C)c(CNC(=O)c2cc(Br)c3c(c2C)OC(C)([C@H]2CC[C@H](N)CC2)O3)c(=O)[nH]1 (relative stereo) [Example 13, 2-(trans-4-Aminocyclohexyl)-7-bromo-N-[(4,6-dimethyl-2-oxo-1,2-dihydropyridin-3-yl)methyl]-2,4-dimethyl-1,3-benzodioxole-5-carboxamide]	16	5.9	21
COc1cc(C)[nH]c(=O)c1CNC(=O)c1cc(Br)c2c(c1C)OC(C)([C@H]1CC[C@H](N(C)C)CC1)O2 (relative stereo) [Example 16, 7-Bromo-2-[trans-4-(dimethylamino)cyclohexyl]-N-[(4-methoxy-6-methyl-2-oxo-1,2-dihydropyridin-3-yl)methyl]-2,4-dimethyl-1,3-benzodioxole-5-carboxamide]	12	1.4	9.4
CCc1cc(C)[nH]c(=O)c1CNC(=O)c1cc(Br)c2c(c1C)OC(C)([C@H]1CC[C@H](N(C)C)CC1)O2 (relative stereo) [Example 17, 7-Bromo-2-[trans-4-(dimethylamino)cyclohexyl]-N-[(4-ethyl-6-methyl-2-oxo-1,2-dihydropyridin-3-yl)methyl]-2,4-dimethyl-1,3-benzodioxole-5-carboxamide]	23	1.2	17
CCCc1cc(C)[nH]c(=O)c1CNC(=O)c1cc(Br)c2c(c1C)OC(C)([C@H]1CC[C@H](N(C)C)CC1)O2 (relative stereo) [Example 18, 7-Bromo-2-[trans-4-(dimethylamino)cyclohexyl]-2,4-dimethyl-N-[(6-methyl-2-oxo-4-propyl-1,2-dihydropyridin-3-yl)methyl]-1,3-benzodioxole-5-carboxamide]	23	5.8	19
CCN[C@H]1CC[C@H](C2(C)Oc3c(Br)cc(C(=O)NCc4c(C)cc(C)[nH]c4=O)c(C)c3O2)CC1 (relative stereo) [Example 19, 7-Bromo-N-[(4,6-dimethyl-2-oxo-1,2-dihydropyridin-3-yl)methyl]-2-[trans-4-(ethylamino)cyclohexyl]-2,4-dimethyl-1,3-benzodioxole-5-carboxamide]	25	11	28
CCN(C)[C@H]1CC[C@H](C2(C)Oc3c(Br)cc(C(=O)NCc4c(C)cc(C)[nH]c4=O)c(C)c3O2)CC1 (relative stereo) [Example 20, 7-Bromo-N-[(4,6-dimethyl-2-oxo-1,2-dihydropyridin-3-yl)methyl]-2-[trans-4-[N-ethyl(N-methyl)amino]cyclohexyl]-2,4-dimethyl-1,3-benzodioxole-5-carboxamide]	17	2.8	23
CCN(CC)[C@H]1CC[C@H](C2(C)Oc3c(Br)cc(C(=O)NCc4c(C)cc(C)[nH]c4=O)c(C)c3O2)CC1 (relative stereo) [Example 21, 7-Bromo-2-[trans-4-(diethylamino)cyclohexyl]-N-[(4,6-dimethyl-2-oxo-1,2-dihydropyridin-3-yl)methyl]-2,4-dimethyl-1,3-benzodioxole-5-carboxamide]	18	10	60
Cc1cc(C)c(CNC(=O)c2ccc3c(c2C)OC(C)([C@H]2CC[C@H](N(C)C)CC2)O3)c(=O)[nH]1 (relative stereo) [Example 23, 2-[trans-4-(Dimethylamino)cyclohexyl]-N-[(4,6-dimethyl-2-oxo-1,2-dihydropyridin-3-yl)methyl]-2,4-dimethyl-1,3-benzodioxole-5-carboxamide]	5.6	2.8	4.1
Cc1cc(C)c(CNC(=O)c2cc(Br)c3c(c2C)OC(C)([C@H]2CC[C@H](CN(C)C)CC2)O3)c(=O)[nH]1 (relative stereo) [Example 24, 7-Bromo-2-[trans-4-[(dimethylamino)methyl]cyclohexyl]-N-[(4,6-dimethyl-2-oxo-1,2-dihydropyridin-3-yl)methyl]-2,4-dimethyl-1,3-benzodioxole-5-carboxamide]	12	19	140
Cc1cc(C)c(CNC(=O)c2cc(Br)c3c(c2C)OC(C)(C[C@H]2CC[C@@H](N(C)C)CC2)O3)c(=O)[nH]1 (relative stereo) [Example 27, 7-Bromo-2-[[cis-4-(dimethylamino)cyclohexyl]methyl]-N-[(4,6-dimethyl-2-oxo-1,2-dihydropyridin-3-yl)methyl]-2,4-dimethyl-1,3-benzodioxole-5-carboxamide]	22	3.8	23
Cc1cc(C)c(CNC(=O)c2cc(Br)c3c(c2C)OC(C)(C[C@H]2CC[C@H](N(C)C)CC2)O3)c(=O)[nH]1 (relative stereo) [Example 28, 7-Bromo-2-[[trans-4-(dimethylamino)cyclohexyl]methyl]-N-[(4,6-dimethyl-2-oxo-1,2-dihydropyridin-3-yl)methyl]-2,4-dimethyl-1,3-benzodioxole-5-carboxamide]	20	14	78
CN[C@H]1CC[C@H](C2(C)Oc3c(Cl)cc(C(=O)NCc4c(C)cc(C)[nH]c4=O)c(C)c3O2)CC1 (relative stereo) [Example 32, 7-Chloro-N-[(4,6-dimethyl-2-oxo-1,2-dihydropyridin-3-yl)methyl]-2,4-dimethyl-2-[trans-4-(methylamino)cyclohexyl]-1,3-benzodioxole-5-carboxamide]	17	4.8	30
Cc1cc(C)c(CNC(=O)c2cc(Cl)c3c(c2C)OC(C)([C@H]2CC[C@H](N(C)C=O)CC2)O3)c(=O)[nH]1 (relative stereo) [Example 33, 7-Chloro-N-[(4,6-dimethyl-2-oxo-1,2-dihydropyridin-3-yl)methyl]-2-[trans-4-[formyl(methyl)amino]cyclohexyl]-2,4-dimethyl-1,3-benzodioxole-5-carboxamide]	28	14	260
COc1cc(C)[nH]c(=O)c1CNC(=O)c1cc(Cl)c2c(c1C)OC(C)([C@H]1CC[C@H](N(C)C)CC1)O2 (relative stereo) [Example 36, 7-Chloro-2-[trans-4-(dimethylamino)cyclohexyl]-N-[(4-methoxy-6-methyl-2-oxo-1,2-dihydropyridin-3-yl)methyl]-2,4-dimethyl-1,3-benzodioxole-5-carboxamide]	13	1.6	13
CCc1cc(C)[nH]c(=O)c1CNC(=O)c1cc(Cl)c2c(c1C)OC(C)([C@H]1CC[C@H](N(C)C)CC1)O2 (relative stereo) [Example 37, 7-Chloro-2-[trans-4-(dimethylamino)cyclohexyl]-N-[(4-ethyl-6-methyl-2-oxo-1,2-dihydropyridin-3-yl)methyl]-2,4-dimethyl-1,3-benzodioxole-5-carboxamide]	19	1.6	28
Cc1cc(C)c(CNC(=O)c2cc(Br)c3c(c2C)OC(C)([C@H]2CC[C@@H](N(C)C)CC2)O3)c(=O)[nH]1 (relative stereo) [Example 41, 7-Bromo-2-[cis-4-(dimethylamino)cyclohexyl]-N-[(4,6-dimethyl-2-oxo-1,2-dihydropyridin-3-yl)methyl]-2,4-dimethyl-1,3-benzodioxole-5-carboxamide]	–	11	–
Cc1cc(C)c(CNC(=O)c2cc(F)c3c(c2C)OC(C)([C@H]2CC[C@H](N(C)C)CC2)O3)c(=O)[nH]1 (relative stereo) [Example 46, 2-[trans-4-(Dimethylamino)cyclohexyl]-N-[(4,6-dimethyl-2-oxo-1,2-dihydropyridin-3-yl)methyl]-7-fluoro-2,4-dimethyl-1,3-benzodioxole-5-carboxamide]	6.7	3.4	72
Cc1cc(C)c(CNC(=O)c2cc(C)c3c(c2C)OC(C)([C@H]2CC[C@H](N(C)C)CC2)O3)c(=O)[nH]1 (relative stereo) [Example 47, 2-[trans-4-(Dimethylamino)cyclohexyl]-N-[(4,6-dimethyl-2-oxo-1,2-dihydropyridin-3-yl)methyl]-2,4,7-trimethyl-1,3-benzodioxole-5-carboxamide]	10	1.4	22
Cc1cc(C)c(CNC(=O)c2cc(Br)c3c(c2C)OC(C)(C2CCOCC2)O3)c(=O)[nH]1 (stereo not drawn) [Example 2, 7-Bromo-N-[(4,6-dimethyl-2-oxo-1,2-dihydropyridin-3-yl)methyl]-2,4-dimethyl-2-(tetrahydropyran-4-yl)-1,3-benzodioxole-5-carboxamide]	22	9	–
CCCN1CCC([C@@]2(C)Oc3c(Br)cc(C(=O)NCc4c(C)cc(C)[nH]c4=O)c(C)c3O2)CC1 [Example 9, (2R)-7-Bromo-N-[(4,6-dimethyl-2-oxo-1,2-dihydropyridin-3-yl)methyl]-2,4-dimethyl-2-(1-propyl-4-piperidyl)-1,3-benzodioxole-5-carboxamide]	11	13	–
CCS(=O)(=O)N1CCC([C@@]2(C)Oc3c(Br)cc(C(=O)NCc4c(C)cc(C)[nH]c4=O)c(C)c3O2)CC1 [Example 11, (2R)-7-Bromo-N-[(4,6-dimethyl-2-oxo-1,2-dihydropyridin-3-yl)methyl]-2-(1-ethylsulfonyl-4-piperidyl)-2,4-dimethyl-1,3-benzodioxole-5-carboxamide]	9.1	3.7	–
Cc1cc(C)c(CNC(=O)c2cc(Br)c3c(c2C)OC(C)([C@@H]2CC[C@@H](N(C)C)CO2)O3)c(=O)[nH]1 (stereo partly drawn) [Example 22, 7-Bromo-2-[(2S,5R)-5-(dimethylamino)tetrahydropyran-2-yl]-N-[(4,6-dimethyl-2-oxo-1,2-dihydropyridin-3-yl)methyl]-2,4-dimethyl-1,3-benzodioxole-5-carboxamide]	14	1.6	–
